From patent publication US20260206761A1, “HETEROARYL-TRIAZOLE COMPOUNDS AS PESTICIDES” (Bayer Aktiengesellschaft, priority 2019, published 2026)

Tests used:
Type in all cases: in vivo
[1] = tested on: southern root-knot nematode (Meloidogyne incognita); experiment: Meloidogyne incognita test; conditions: 336 h, application rate 20 ppm, after 14 days, read-out: nematicidal activity (based on gall formation)
Description: Meloidoyne incognita—Test
Solvent: 125.0 parts by weight of acetone
To produce a suitable preparation of active compound, 1 part by weight of active compound is mixed with the stated amount of solvent, and the concentrate is diluted with water to the desired concentration.
Vessels are filled with sand, a solution of the active ingredient, a suspension containing eggs and larvae of the southern root-knot nematode (Meloidogyne incognita) and salad seeds. The salad seeds germinate and the seedlings grow. Galls develop in the roots.
After 14 days the nematicidal activity is determined based on the percentage of gall formation. 100% means no galls were found and 0% means the number of galls found on the roots of the treated plants was equal to that in untreated control plants.

[2] = tested on: larvae of the banded cucumber beetle (Diabrotica balteata); experiment: Diabrotica balteata spray test; conditions: 168 h, application rate 100 g/ha (=32 pg/well), after 7 days, read-out: activity (efficacy: seedlings grown)
Outline: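 Wheat seedlings, germinated 1 day on agar (5 seeds/well), sprayed with active compound in acetone/DMF diluted in water containing 1000 ppm emulsifier, then infested with 10-20 D. balteata larvae. Efficacy (%) scored after 7 days: 100% = seedlings grown as untreated uninfested control, 0% = no seedlings grown.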

[3] = tested on: Rhipicephalus microplus larvae (strain Parkhurst, resistant against synthetic pyrethroids); experiment: Rhipicephalus (Boophilus) microplus in-vitro contact test, larval cattle tick; conditions: after 48 hours, read-out: activity (efficacy: larvae dead or moribund); for pest or weed control at 100 g/ha: application rate 1 pg/cm^2 (=100 g/ha); for pest or weed control at 500 g/ha: application rate 5 pg/cm^2 (=500 g/ha)
Outline: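 Acetone solutions coated onto inner walls of glass tubes by rotation (900 ppm giving 5 μg/cm^2); after evaporation, 20-50 larvae added per tube and held at 27° C., 85% relative humidity. Efficacy read after 48 h from negative geotactic behaviour; 100% = all larvae dead or moribund.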

[4] = tested on: adult brown dog ticks (Rhipicephalus sanguineus); experiment: Rhipicephalus sanguineus in-vitro contact test, adult brown dog ticks; conditions: after 48 hours, read-out: activity (efficacy: ticks dead or moribund); for pest or weed control at 5 µg/cm2, 500 g/ha: application rate 5 μg/cm^2 (=500 g/ha); for pest or weed control at 100 g/ha: application rate 1 pg/cm^2 (=100 g/ha)
Outline: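 Acetone solution rolled onto tube walls, 2 h at 30 rpm; 900 ppm → 5 μg/cm^2. Solvent evaporated, 5-10 adults/tube, perforated lid, lying, RT. 48 h: heat plate 45-50° C ≤5 min; immotile/uncoordinated = dead/moribund. 100% = all dead/moribund.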

[5] = tested on: fall armyworm larvae (Spodoptera frugiperda); experiment: Spodoptera frugiperda spray test; conditions: 168 h, read-out: activity (mortality)
Outline: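 Compound in acetone/DMF, diluted in water with 1000 ppm alkylarylpolyglycol ether emulsifier, sprayed on maize leaf sections. Dried leaves infested with fall armyworm larvae; % mortality after 7 days (100% = all killed, 0% = none).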

[6] = tested on: green peach aphid (Myzus persicae); experiment: Myzus persicae spray test; conditions: 120 h, application rate 100 g/ha, after 5 days
Outline: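 Chinese cabbage leaf disks carrying all instars of M. persicae sprayed with compound in acetone/DMF, diluted in water with 1000 ppm alkylarylpolyglycol ether emulsifier. Percent mortality scored after 5 days (100% = all aphids killed).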

[7] = tested on: adult engorged female ticks (Rhipicephalus microplus); experiment: Rhipicephalus (Boophilus) microplus injection test; conditions: 168 h, egg deposition after 7 days, read-out: activity (efficacy: infertile eggs); for pest or weed control at 4 pg: application rate 4 pg/animal; for pest or weed control at 0.02 mg: application rate 20 μg/animal
Outline: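 Five adult engorged female ticks injected into the abdomen with 1 μL compound solution in DMSO, then held in a climate chamber. Fertile egg deposition assessed after 7 days, unclear eggs kept until hatching (about 42 days); efficacy 100% = all eggs infertile, 0% = all fertile.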

[8] = tested on: adult unfed cat fleas (Ctenocephalides felis); experiment: Ctenocephalides felis oral test; conditions: 48 h, read-out: activity (mortality)
Outline: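 About 20 adult unfed fleas fed through parafilm on cattle blood containing compound (DMSO stock diluted in blood), blood held at 37 °C and fleas at room temperature. Mortality (%) scored after 2 days.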

[9] = tested on: green peach aphid (Myzus persicae); experiment: Myzus persicae oral test; conditions: 120 h, application rate 4 ppm, after 5 days
Outline: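 Compound was dissolved at 1 part by weight in 100 parts acetone, then diluted with water to test concentration and combined with IPL41 insect medium (33%+15% sugar). A mixed aphid population fed on this through a parafilm seal, and mortality (%) was scored after 5 days.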

[10] = tested on: larvae of the southern green stink bug (Nezara viridula); experiment: Nezara viridula spray test; conditions: 96 h, after 4 days; for mortality at 100 g/ha: application rate 100 g/ha; for mortality at 500 g/ha: application rate 500 g/ha
Outline: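 Compound in acetone/dimethylformamide, diluted in water with 1000 ppm alkylarylpolyglycol ether emulsifier, sprayed onto barley plants carrying stink bug larvae. Mortality (%) scored after 4 days, 100% meaning all insects killed.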

[11] = tested on: adult cat fleas (Ctenocephalides felis); experiment: Ctenocephalides felis in-vitro contact test, adult cat flea; conditions: application rate 5 μg/cm^2 (=500 g/ha), after 48 hours, read-out: activity (efficacy: fleas dead or moribund)
Outline: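 Acetone solutions of compound coated onto inner walls of glass tubes (900 ppm giving […]); after drying, 5-10 adult Ctenocephalides felis added and held at room temperature. At 48 h, fleas placed on a 45-50° C heating plate; those unable to climb away scored dead or moribund, expressed as % efficacy.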

[12] = tested on: Aedes aegypti strain MONHEIM; experiment: Aedes aegypti test (AEDSAE surface treatment & contact assay); conditions: 24 hours after contact, read-out: efficacy (mortality); for mortality at 4 mg/m2: surface concentration 4 mg/m^2, exposure 30 minutes; for mortality at 20 mg/m2: surface concentration 20 mg/m^2, exposure 30 minutes
Outline: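 Compound in acetone (2 mg/ml) with 2000 ppm RME pipetted onto glazed tile and dried; adult Aedes aegypti MONHEIM exposed 30 min. Percent mortality scored 24 h after contact.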

[13] = tested on: Culex quinquefasciatus strain P00; experiment: Culex quinquefasciatus test (CULXFA surface treatment & contact assay); conditions: surface concentration 20 mg/m^2, exposure 30 minutes, 24 hours after contact, read-out: efficacy (mortality)
Description: Culex quinquefasciatus Test (CULXFA Surface Treatment & Contact Assay)
Solvent: Aceton+2000 ppm rapeseed oil methyl ester (RME)
In order to produce a sufficient, active ingredient containing solution it is necessary to solve the test compound in the solvent-mix (acetone at 2 mg/ml/RME 2 000 ppm). This solution is pipetted onto a glazed tile and after evaporation of the acetone, adult mosquitoes of the species Culex quinquefasciatus strain P00 are placed onto the dried surface. The exposure time is 30 minutes. Mortality in percent (%) is determined 24 hours after contact of the insects to the treated surface. 100% mortality means that all tested insects are dead, whereas 0% means that no insect died.

Row | SMILES | pest or weed control at 20 ppm [1] [%] | pest or weed control at 100 g/ha [2] [%] | pest or weed control at 100 g/ha [3] [%] | pest or weed control at 500 g/ha [3] [%] | pest or weed control at 5 µg/cm2, 500 g/ha [4] [%] | mortality at 100 g/ha [5] [%] | mortality at 100 g/ha [6] [%] | pest or weed control at 4 pg [7] [%] | pest or weed control at 0.02 mg [7] [%] | mortality at 100 ppm [8] [%] | mortality at 4 ppm [9] [%] | mortality at 100 g/ha [10] [%] | mortality at 500 g/ha [10] [%] | pest or weed control at 5 µg/cm2 [11] [%] | mortality at 4 mg/m2 [12] [%] | mortality at 20 mg/m2 [12] [%] | mortality at 500 g/ha [5] [%] | pest or weed control at 100 g/ha [4] [%] | mortality at 20 mg/m2 [13] [%]
1 | CC(NC(=O)c1cc(OC(F)(F)F)cc(C2CC2)c1)c1nc(I)nn1-c1ccc(C#N)cn1 (centres unmarked) [I-83] | 100 | 100 | 100 | 100 | 80 | 100 | – | – | – | – | – | – | – | – | – | – | – | – | –
2 | CC(C)c1nc([C@H](C)NC(=O)c2cc(Cl)cc(S(=O)(=O)CC(F)(F)F)c2)n(-c2ccc(C#N)cn2)n1 [I-21, 3-chloro-N-{(1S)-1-[1-(5-cyanopyridin-2-yl)-3-isopropyl-1H-1,2,4-triazol-5-yl]ethyl}-5-[(2,2,2-trifluoroethyl)sulfonyl]benzamide] | 90 | – | – | – | – | – | 90 | 100 | 100 | – | – | – | – | – | – | – | – | – | –
3 | CCS(=O)(=O)c1cc(Cl)cc(C(=O)N[C@@H](C)c2nc(C(C)C)nn2-c2ccc(C#N)cn2)c1 [I-17] | 90 | – | 80 | 80 | – | – | – | 100 | 100 | 90 | – | – | – | – | – | – | – | – | –
4 | C[C@H](NC(=O)c1cc(Cl)cc(S(=O)(=O)C2CC2)c1)c1ncnn1-c1ccc(C#N)cn1 [II-21] | 90 | – | 100 | 100 | – | 100 | – | 100 | 100 | – | 100 | 90 | 100 | 100 | 80 to 100 | 80 to 100 | 100 | – | –
5 | Cc1nc([C@H](C)NC(=O)c2cc(OC(F)F)cc(C3CC3)c2)n(-c2ccc(C#N)cn2)n1 [II-63] | 90 | 100 | 100 | 100 | 100 | 100 | 100 | 100 | – | – | 100 | – | – | 100 | – | – | – | 100 | –
6 | C[C@H](NC(=O)c1cc(C2CC2)cc(S(=O)(=O)C2CC2)c1)c1nc(C2CC2)nn1-c1ccc(C#N)cn1 [I-56] | 100 | – | 100 | 100 | – | 100 | – | – | – | – | – | – | – | – | – | – | – | – | –
7 | C[C@H](NC(=O)c1cc(Cl)cc(S(=O)(=O)C2CC2)c1)c1nc(C2CC2)nn1-c1ccc(C#N)cn1 [I-22] | 100 | 100 | 100 | 100 | 80 | 100 | – | 100 | 100 | 100 | 100 | – | – | – | – | – | – | – | –
8 | CC(C)c1nc([C@H](C)NC(=O)c2cc(Cl)cc(S(=O)(=O)C3CC3)c2)n(-c2ccc(C#N)cn2)n1 [I-18] | 100 | 100 | 90 | 90 | 100 | – | – | 100 | 100 | 80 | 100 | – | – | – | – | – | – | – | –
9 | CC(NC(=O)c1cc(OC(F)(F)F)cc(C2CC2)c1)c1nc(Br)nn1-c1ccc(C#N)cn1 (centres unmarked) [I-84] | 100 | 100 | – | – | – | 100 | – | – | – | – | – | – | – | – | – | – | – | – | –
10 | CCS(=O)(=O)c1cc(Cl)cc(C(=O)N[C@@H](C)c2ncnn2-c2ccc(C#N)cn2)c1 [II-20] | 90 | – | 100 | 100 | – | 83 | – | 100 | 100 | – | 100 | 100 | 100 | 100 | 80 to 100 | 80 to 100 | 100 | – | 80 to 100
11 | C[C@H](NC(=O)c1cc(C(F)F)cc(C2CC2)c1)c1ncnn1-c1ccc(C#N)cn1 [II-60] | 90 | 100 | 100 | 100 | 100 | 100 | – | 100 | – | 90 | 100 | 90 | – | 100 | – | – | – | 100 | –
